# Reference: US9453031B2, “Chemical entities” (Fundación Centro Nacional de Investigaciones Oncológicas …, priority 2013, dated 2016)
# Experiments:
# ATR = ATR (Homo sapiens (Human), UniProt Q13535); assay: Cellular ATR inhibition, western blot of CHK1(S345) phosphorylation in hydroxyurea treated cells; type: cell-based; conditions: HT29 cells
# Procedure: In addition to the selective system described above, Example compounds presented here were screened for their ability to inhibit intracellular ATR using a western blot assay to detect phosphorylation of the ATR substrate CHK1(S345) in hydroxyurea treated cells. HT29 cells are plated at 500,000 cells per well in 6-well plates in RPMI media (Sigma R6504) supplemented with 10% foetal bovine serum (Sigma F7524), Penicillin/Streptomycin solution diluted 1:100 (Gibco 15070-063), and fungizone (Gibco, 15290-018), and allowed to adhere overnight at 37° C. in 5% CO2. Compounds are then added to the cell media from a final concentration of 10 μM in 3-fold serial dilutions and the cells are incubated at 37° C. in 5% CO2. After 15 min, hydroxyurea (Sigma H8627) is added to a final concentration of 2.5 mM. After 30 min of treatment with hydroxyurea, the cells are washed in PBS, lysed adding 50 μl of in protein lysis buffer (50 mM Tris pH 7.5, 150 mM NaCl, 1% IGEPAL CO-630 (Sigma, Ref. 542334-100G-A), Phospho Stop (Roche, Ref. 04906837001) and Complete Mini EDTA free (Roche, Ref. 11836170001)). The protein content of the lysates was determined by the modified method of Bradford (Sigma, Ref. B6916). The proteins were resolved by SDS-PAGE and transferred to nitrocellulose membrane (VWR International Eurolab, Ref. 732-4007). The membranes were incubated overnight at 4° C. with antibodies specific for total CHK1 (Santa Cruz Biotechnology, sc-8404), phosphoserine-345 CHK1 (Cell Signaling Technology #2348) they were washed and then incubated with IRDye800 conjugated anti-mouse (Pierce/Cultek, 35521) and Alexa Fluor 680 goat anti-rabbit IgG secondary antibodies (Invitrogen, A21076). The bands were visualized and quantified using an Odyssey infrared imaging system (Li-Cor Biosciences). The percentage of phosphorylated CHK1 vs total CHK1 in cells treated with hydroxyurea was taken as hundred percent of phosphorylation. The percentage of CHK1 phosphorylation is finally plotted against concentration for each compound and EC50s for intracellular ATR inhibition are calculated using ActivityBase from IDBS.
# mTOR = mTOR (Homo sapiens (Human), UniProt P42345); assay: mTOR activity assay (LanthaScreen); type: biochemical
# Procedure: The enzymatic mTOR activity was measured using a LanthaScreen™ kinase activity assay (Invitrogen). The enzyme was purchased from Invitrogen (PV4754), as well as the GFP-labelled substrate (4EBP1-GFP; PV4759) and the Tb-antip4EBP1(pThr46) antibody (PV4757). The assay was performed in 50 Mm HEPES buffer, pH 7.5, containing 1.5 mM MnCl2, 10 mM MgCl2, 1 mM EGTA, 2.5 mM DTT and 0.01% Tween-20. The concentration of the assay components were the following: 0.24 nM mTOR kinase, 400 nM 4EBP1-GFP, […] and serial dilutions of the compound (inhibitor) to be evaluated. After 1 h incubation at room temperature, 20 mM EDTA was used to stop the reaction and terbium-labelled antibody (4 nM) added to detect phosphorylated product. The antibody associates with the phosphorylated product resulting in an increased TR-FRET value. The TR-FRET value (a dimensionless number) was calculated as the ratio of the acceptor signal (GFP, emission at 520 nm) to the donor signal (terbium, emission at 495 nm).
# PI3K (p110α/p85α) = PI3K (p110α/p85α) (Homo sapiens (Human), UniProt P42336); assay: PI3K alpha activity assay (ADP Hunter Plus); type: biochemical; conditions: 50 μM ATP, 30 μM PIP2; read-out: PI3Kα IC50
# PI3K (p110α/p85α), sequence (P42336 whole entry): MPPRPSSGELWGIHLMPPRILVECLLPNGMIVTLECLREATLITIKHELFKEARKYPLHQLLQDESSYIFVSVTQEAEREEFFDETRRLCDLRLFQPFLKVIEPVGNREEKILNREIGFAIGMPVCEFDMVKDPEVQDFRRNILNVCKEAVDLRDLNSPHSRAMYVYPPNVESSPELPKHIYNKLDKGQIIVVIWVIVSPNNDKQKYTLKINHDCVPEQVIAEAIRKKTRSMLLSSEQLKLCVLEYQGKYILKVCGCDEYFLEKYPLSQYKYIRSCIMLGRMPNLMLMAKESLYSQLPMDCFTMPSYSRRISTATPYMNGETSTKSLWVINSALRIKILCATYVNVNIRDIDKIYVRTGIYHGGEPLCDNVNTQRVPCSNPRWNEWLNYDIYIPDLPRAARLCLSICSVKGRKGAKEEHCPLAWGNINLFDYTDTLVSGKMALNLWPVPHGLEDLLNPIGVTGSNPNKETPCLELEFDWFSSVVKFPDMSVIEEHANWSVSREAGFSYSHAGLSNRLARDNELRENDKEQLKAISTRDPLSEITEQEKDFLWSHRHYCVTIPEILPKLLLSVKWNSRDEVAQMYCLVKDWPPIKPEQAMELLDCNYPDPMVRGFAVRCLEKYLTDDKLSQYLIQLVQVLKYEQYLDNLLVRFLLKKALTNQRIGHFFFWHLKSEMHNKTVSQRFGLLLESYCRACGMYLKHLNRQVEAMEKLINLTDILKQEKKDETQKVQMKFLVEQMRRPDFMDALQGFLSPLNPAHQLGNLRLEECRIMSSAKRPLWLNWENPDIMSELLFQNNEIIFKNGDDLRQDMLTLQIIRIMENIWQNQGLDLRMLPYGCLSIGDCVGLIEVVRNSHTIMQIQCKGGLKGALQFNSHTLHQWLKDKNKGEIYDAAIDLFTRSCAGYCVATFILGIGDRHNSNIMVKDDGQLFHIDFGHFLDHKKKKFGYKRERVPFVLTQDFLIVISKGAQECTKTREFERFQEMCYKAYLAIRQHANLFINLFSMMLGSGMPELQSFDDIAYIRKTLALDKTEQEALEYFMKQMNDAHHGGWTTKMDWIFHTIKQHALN
# PI3K (p110α/p85α), sequence (P27986 whole entry partner): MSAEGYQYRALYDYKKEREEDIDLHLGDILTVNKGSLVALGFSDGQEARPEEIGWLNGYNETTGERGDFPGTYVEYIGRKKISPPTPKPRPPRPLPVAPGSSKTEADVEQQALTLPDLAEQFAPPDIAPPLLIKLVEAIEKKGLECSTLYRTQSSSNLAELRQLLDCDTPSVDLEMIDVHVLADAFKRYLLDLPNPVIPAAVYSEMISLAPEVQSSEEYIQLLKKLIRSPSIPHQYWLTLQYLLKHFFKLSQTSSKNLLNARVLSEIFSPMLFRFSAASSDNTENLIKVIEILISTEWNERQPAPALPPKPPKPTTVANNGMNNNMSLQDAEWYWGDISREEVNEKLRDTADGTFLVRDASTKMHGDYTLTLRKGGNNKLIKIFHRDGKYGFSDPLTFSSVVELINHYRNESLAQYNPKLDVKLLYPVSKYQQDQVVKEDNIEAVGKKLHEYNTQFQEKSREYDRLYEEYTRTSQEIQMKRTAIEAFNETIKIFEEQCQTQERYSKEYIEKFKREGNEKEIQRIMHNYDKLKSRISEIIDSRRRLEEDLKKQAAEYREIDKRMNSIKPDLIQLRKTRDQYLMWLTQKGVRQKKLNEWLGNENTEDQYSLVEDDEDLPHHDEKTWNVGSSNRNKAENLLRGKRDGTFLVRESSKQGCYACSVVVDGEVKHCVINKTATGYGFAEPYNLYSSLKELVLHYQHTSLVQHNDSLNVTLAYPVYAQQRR
# Procedure: The kinase activity was measured by using the commercial ADP Hunter™ Plus assay available from DiscoveRx (#33-016), which is a homogeneous assay to measure the accumulation of ADP, a universal product of kinase activity. […] The reaction was carried out for 1 hour at 25° C. Reagent A and B were sequentially added to the wells and plates were incubated for 30 min at 37° C. Fluorescence counts were read in a Victor instrument (Perkin Elmer) with the recommended settings (544 and 580 nm as excitation and emission wavelengths, respectively).
# DNA-PK = DNA-PK (Homo sapiens (Human), UniProt P78527); assay: DNAPK activity assay (ADP Hunter Plus); type: biochemical; conditions: 75 μM ATP
# Procedure: The kinase activity was measured by using the commercial ADP Hunter™ Plus assay available from DiscoveRx (#90-0083), which is a homogeneous assay to measure the accumulation of ADP, a universal product of kinase activity. The enzyme, DNA-PK was purchased from Promega (#V5811). The assay was done following the manufacturer recommendations with slight modifications: Mainly the kinase buffer was replace by 15 mM HEPES, pH 7.5, 10 mM MgCl2, 20 mM NaCl, 1 mM EGTA, 0.1 mg/mL BGG, 0.02% Tween 20. The DNA-PK was assayed in a titration experiment to determine the optimal protein concentration for the inhibition assay. To calculate the […] of the Compounds, serial 1:3 dilutions of the compounds were added to the enzyme at a fixed concentration (2 U/μL). The enzyme was preincubated with the inhibitor and 200 μM DNA substrate and then ATP was added to a final 75 μM concentration. Reaction was carried out for 1 hour at 37° C. Reagent A and B were sequentially added to the wells and plates were incubated for 30 min at RT. Fluorescence counts were read in a EnVision instrument (Perkin Elmer) with the recommended settings (550 and 590 nm as excitation and emission wavelengths, respectively).
# ATR, sequence (Q13535 whole entry): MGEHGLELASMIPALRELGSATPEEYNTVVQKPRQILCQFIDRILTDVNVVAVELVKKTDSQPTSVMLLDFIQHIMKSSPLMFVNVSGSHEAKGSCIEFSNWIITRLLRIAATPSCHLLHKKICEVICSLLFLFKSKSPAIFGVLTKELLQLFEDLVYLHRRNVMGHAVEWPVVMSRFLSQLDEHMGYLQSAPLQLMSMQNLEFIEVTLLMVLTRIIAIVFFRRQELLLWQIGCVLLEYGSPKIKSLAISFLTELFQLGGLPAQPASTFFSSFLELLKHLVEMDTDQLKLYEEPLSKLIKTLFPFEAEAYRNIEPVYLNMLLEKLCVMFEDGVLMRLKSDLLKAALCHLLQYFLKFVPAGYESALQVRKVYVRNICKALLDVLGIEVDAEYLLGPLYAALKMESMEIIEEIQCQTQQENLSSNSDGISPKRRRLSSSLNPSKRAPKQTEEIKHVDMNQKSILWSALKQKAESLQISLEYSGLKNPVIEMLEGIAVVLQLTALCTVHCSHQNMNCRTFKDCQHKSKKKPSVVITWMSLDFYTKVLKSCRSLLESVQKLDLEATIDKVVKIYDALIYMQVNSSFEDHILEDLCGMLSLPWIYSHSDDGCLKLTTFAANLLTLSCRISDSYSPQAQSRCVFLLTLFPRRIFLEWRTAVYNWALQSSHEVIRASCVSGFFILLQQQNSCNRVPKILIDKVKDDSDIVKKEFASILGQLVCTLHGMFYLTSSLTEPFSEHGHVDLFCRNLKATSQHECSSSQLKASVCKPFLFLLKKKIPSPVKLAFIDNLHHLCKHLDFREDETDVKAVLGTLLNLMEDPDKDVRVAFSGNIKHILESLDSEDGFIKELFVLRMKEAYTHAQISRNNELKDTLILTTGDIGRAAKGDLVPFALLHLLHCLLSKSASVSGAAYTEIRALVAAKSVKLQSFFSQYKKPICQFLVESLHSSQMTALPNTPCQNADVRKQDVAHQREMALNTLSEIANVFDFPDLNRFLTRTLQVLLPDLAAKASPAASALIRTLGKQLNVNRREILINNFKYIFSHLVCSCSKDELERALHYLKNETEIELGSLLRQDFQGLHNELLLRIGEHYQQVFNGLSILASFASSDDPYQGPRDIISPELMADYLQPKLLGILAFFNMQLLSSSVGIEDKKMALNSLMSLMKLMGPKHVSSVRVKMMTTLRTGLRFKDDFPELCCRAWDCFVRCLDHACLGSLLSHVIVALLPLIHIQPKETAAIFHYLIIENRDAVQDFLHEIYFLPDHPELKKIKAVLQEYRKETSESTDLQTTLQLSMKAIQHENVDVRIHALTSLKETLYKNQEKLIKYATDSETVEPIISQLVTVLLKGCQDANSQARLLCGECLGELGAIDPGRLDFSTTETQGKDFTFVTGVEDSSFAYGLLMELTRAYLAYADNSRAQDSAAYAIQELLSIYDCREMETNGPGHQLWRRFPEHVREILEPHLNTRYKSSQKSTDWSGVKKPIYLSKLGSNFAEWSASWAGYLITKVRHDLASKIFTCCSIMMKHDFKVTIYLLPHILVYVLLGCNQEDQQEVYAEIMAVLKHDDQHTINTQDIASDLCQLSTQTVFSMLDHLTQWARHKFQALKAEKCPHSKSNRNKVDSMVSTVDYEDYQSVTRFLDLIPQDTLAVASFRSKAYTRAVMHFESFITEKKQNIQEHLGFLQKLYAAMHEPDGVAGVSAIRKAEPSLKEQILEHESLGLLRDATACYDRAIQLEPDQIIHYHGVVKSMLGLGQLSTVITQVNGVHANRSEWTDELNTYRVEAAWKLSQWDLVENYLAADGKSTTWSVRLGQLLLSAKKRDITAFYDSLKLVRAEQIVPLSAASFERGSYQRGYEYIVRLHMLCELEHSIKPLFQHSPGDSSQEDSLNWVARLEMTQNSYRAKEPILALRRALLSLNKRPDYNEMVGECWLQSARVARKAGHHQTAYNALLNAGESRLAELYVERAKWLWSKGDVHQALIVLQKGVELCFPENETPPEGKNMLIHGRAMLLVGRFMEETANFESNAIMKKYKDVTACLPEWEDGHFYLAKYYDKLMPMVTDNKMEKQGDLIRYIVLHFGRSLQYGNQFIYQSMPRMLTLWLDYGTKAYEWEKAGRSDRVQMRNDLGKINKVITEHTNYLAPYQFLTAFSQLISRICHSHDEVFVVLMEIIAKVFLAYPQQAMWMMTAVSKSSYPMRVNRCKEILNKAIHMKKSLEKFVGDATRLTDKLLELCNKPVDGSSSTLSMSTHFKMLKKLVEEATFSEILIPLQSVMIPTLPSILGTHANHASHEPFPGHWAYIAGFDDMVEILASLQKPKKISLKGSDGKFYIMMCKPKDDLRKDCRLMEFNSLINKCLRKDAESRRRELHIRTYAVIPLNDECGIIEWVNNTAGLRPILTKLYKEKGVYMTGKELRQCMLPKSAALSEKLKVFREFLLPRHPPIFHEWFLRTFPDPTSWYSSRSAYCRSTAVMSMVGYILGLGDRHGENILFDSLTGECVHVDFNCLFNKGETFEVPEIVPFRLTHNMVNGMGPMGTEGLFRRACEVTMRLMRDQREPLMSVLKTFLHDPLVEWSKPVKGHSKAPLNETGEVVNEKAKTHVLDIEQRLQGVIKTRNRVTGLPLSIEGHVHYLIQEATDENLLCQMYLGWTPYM
SMILES,EC50 (ATR; hydroxyurea 2.5 mM) [nM],IC50 (mTOR) [nM],IC50 (PI3K (p110α/p85α)) [nM],IC50 (DNA-PK) [nM],EC50 (ATR; hydroxyurea […]) [nM]
CC(C)(c1nc(-c2cc(F)cc3[nH]ccc23)nc2c1OC[C@@H]1COCCN21)S(C)(=O)=O [Example 71],< 100,99.3,1080,10000,
CNc1nc2ccccc2n1-c1nc2c(c(C(C)(C)S(C)(=O)=O)n1)OCC[C@@H]1COCCN21 [Example 62],100 to 1000,6600,16200,10000,
CC(C)(c1nc(-c2cccc3[nH]ccc23)nc2c1OC[C@@H]1COCCN21)S(=O)(=O)C1CC1 [Example 61],100 to 1000,228,3220,10000,
Cc1cc2c(-c3nc4c(c(C(C)(C)S(C)(=O)=O)n3)OC[C@@H]3COCCN43)cccc2[nH]1 [Example 103],100 to 1000,58,3160,10000,
CS(=O)(=O)C1(c2nc(-c3cccc4[nH]ccc34)nc3c2OCC[C@H]2COCCN32)CCOCC1 [Example 23],100 to 1000,10000,50000,6370,
CNc1nc2ccc(Cl)cc2n1-c1nc2c(c(C(C)(C)S(C)(=O)=O)n1)OC[C@@H]1COCCN21 [Example 81],,5550,50000,10000,> 1000
Cc1cc2c(-c3nc4c(c(C5(S(C)(=O)=O)CCC5)n3)OC[C@@H]3COCCN43)cccc2[nH]1 [Example 93],100 to 1000,117,7440,10000,
CS(=O)(=O)C1(c2nc(-c3ccnc4[nH]ccc34)nc3c2OC[C@@H]2COCCN32)CCOCC1 [Example 30],100 to 1000,4680,2500,25000,
CC(C)(O)c1nc(-c2cccc3[nH]ccc23)nc2c1OC[C@@H]1COCCN21 [Example 44],100 to 1000,44,1180,3060,
CC(C)(c1nc(-c2ccc(F)c3[nH]ccc23)nc2c1OC[C@@H]1COCCN21)S(C)(=O)=O [Example 102],> 1000,1820,50000,100,
Cc1cc2c(-c3nc4c(c(C5(S(C)(=O)=O)CC5)n3)OC[C@@H]3COCCN43)cccc2[nH]1 [Example 109],100 to 1000,224,5690,10000,
COc1cc(-c2nc3c(c(C4(S(C)(=O)=O)CC4)n2)OC[C@@H]2COCCN32)c2cc[nH]c2c1 [Example 75],100 to 1000,93,2520,1830,
CNc1nc2cc(Cl)ccc2n1-c1nc2c(c(C(C)(C)S(C)(=O)=O)n1)OC[C@@H]1COCCN21 [Example 80],,501,13100,10000,> 1000
CNc1nc2ccc(Cl)cc2n1-c1nc2c(c(C3(S(C)(=O)=O)CC3)n1)OC[C@@H]1COCCN21 [Example 87],,10000,50000,210,> 1000
CC(C)(c1nc(-c2c(F)ccc3[nH]ccc23)nc2c1OC[C@H]1COCCN21)S(C)(=O)=O [Example 26],> 1000,10000,2700,10000,
CS(=O)(=O)C1(c2nc(-c3cc(F)cc4[nH]ccc34)nc3c2OC[C@@H]2COCCN32)CC1 [Example 74],100 to 1000,152,2240,989,
CS(=O)(=O)C1(c2nc(-c3cc(C(F)(F)F)cc4[nH]ccc34)nc3c2OC[C@@H]2COCCN32)CCC1 [Example 112],100 to 1000,235,19500,10000,
COc1cc(-c2nc3c(c(C4(S(C)(=O)=O)CCOCC4)n2)OC[C@@H]2COCCN32)c2cc[nH]c2c1 [Example 29],< 100,435,3800,25000,
CS(=O)(=O)C1(c2nc(-c3cccc4[nH]ccc34)nc3c2OC[C@@H]2COCCN32)CC1 [Example 6],100 to 1000,558,4500,4520,
CNc1nc2cc(Cl)ccc2n1-c1nc2c(c(C3(S(C)(=O)=O)CC3)n1)OC[C@@H]1COCCN21 [Example 86],,3410,50000,10000,> 1000
CNc1nc2ccc(C#N)cc2n1-c1nc2c(c(C(C)(C)S(C)(=O)=O)n1)OC[C@@H]1COCCN21 [Example 114],,10000,50000,10000,> 1000
COc1cc(-c2nc3c(c(C(C)(C)S(C)(=O)=O)n2)OC[C@@H]2COCCN32)c2cc[nH]c2c1 [Example 72],100 to 1000,45.3,820,1600,
CS(=O)(=O)C1(c2nc(-c3cc(C(F)(F)F)cc4[nH]ccc34)nc3c2OC[C@@H]2COCCN32)CC1 [Example 108],100 to 1000,579,15400,1750,
CC(C)(c1nc(-n2c(N)nc3ccccc32)nc2c1OC[C@@H]1COCCN21)S(C)(=O)=O [Example 70],,226,870,741,100 to 1000
COc1cc(-c2nc3c(c(C(C)(C)O)n2)OC[C@@H]2COCCN32)c2cc[nH]c2c1 [Example 46],100 to 1000,38,480,2820,
CS(=O)(=O)C1(c2nc(-c3cc(F)cc4[nH]ccc34)nc3c2OC[C@@H]2COCCN32)CCOCC1 [Example 28],< 100,785,4700,25000,
CNc1nc2ccccc2n1-c1nc2c(c(C3(S(C)(=O)=O)CC3)n1)OC[C@@H]1COCCN21 [Example 66],100 to 1000,854,7170,2410,
CC(C)(c1nc(-n2c(N3CCOCC3)nc3ccccc32)nc2c1OC[C@@H]1COCCN21)S(C)(=O)=O [Example 73],,10000,50000,10000,> 1000
CNc1nc2ccccc2n1-c1nc2c(c(C3(S(C)(=O)=O)CCC3)n1)OC[C@@H]1COCCN21 [Example 92],< 100,1240,2750,6150,
CNc1nc2ccc(F)cc2n1-c1nc2c(c(C3(S(C)(=O)=O)CCC3)n1)OC[C@@H]1COCCN21 [Example 97],,6800,50000,6800,100 to 1000
